Experimental data from patent publication US20230312473A1, “PROCESS FOR THE PREPARATION OF BIHETEROARYL COMPOUNDS AND CRYSTAL FORMS THEREOF” (Genentech, Inc., priority 2020, published 2023).

Assay: Solubility of compound (1) in solvents at 0° C. and the respective maximum process temperature
Assay type: physicochemical
Conditions: for Solubility at max temp / Solubility at 0° C.: Form A
From the text: Prior art processes for preparing compound (1) used isopropyl acetate for final crystallization, having a yield of 84% at a relatively low concentration of 3.0%-w/w. […] It was known from previous qualitative experimental data as well as solubility prediction (numerical simulation) that the possible list is reduced since the solubility of GDC-0134 in alcohols is too low. From a process design perspective, a simple cooling crystallization is preferred over other designs like antisolvent or evaporative crystallization especially because of easier process control. […] Mainly esters but also acetonitrile, methyl isobutyl ketone (MIBK), and 2-MeTHF were on the shortlist for precise solubility determination. The solubility of compound (1) in these solvents is Table 5 for 0° C. and the respective maximum process temperatures. […] While the solubility in acetonitrile is very low even for high temperatures, mixtures of 2-MeTHF and acetonitrile show a synergistic effect at least for a 1:1 mixture. The solubility at 70° C. is the highest among the investigated systems, and the theoretical yield is close to 90%. Due to concerns with regard to the efficient removal of acetonitrile to acceptable levels after drying, 2-MeTHF/acetonitrile-mixtures were not further investigated, though. MIBK offered the highest theoretical yield plus a significant increase in concentration compared to iPrOAc and it was selected for a more detailed investigation

Nc1ncc(-c2cc(N3C[C@@H]4C[C@H]3CO4)nc(N3CCC(F)(F)C3)n2)cc1OC(F)F [Compound 1, 5-(6-((1S,4S)-2-oxa-5-azabicyclo[2.2.1]heptan-5-yl)-2-(3,3-difluoropyrrolidin-1-yl)pyrimidin-4-yl)-3-(difluoromethoxy)pyridin-2-amine]
solubility in alcohols (previous qualitative experimental data and solubility prediction): too low
Solubility at max temp (solvent: 2-MeTHF:MeCN (1:1), 70 ° C.): 7.3 w/w %
Solubility at 0° C. (solvent: 2-MeTHF:MeCN (1:1)): 0.8 w/w %
Solubility at max temp (solvent: 2-MeTHF:MeCN (3:1), 70 ° C.): 2.2 w/w %
Solubility at 0° C. (solvent: 2-MeTHF:MeCN (3:1)): 1.7 w/w %
Solubility at max temp (solvent: 2-MeTHF, 70 ° C.): 5.2 w/w %
Solubility at 0° C. (solvent: 2-MeTHF): 1.6 w/w %
Solubility at max temp (solvent: Acetonitrile, 70 ° C.): 1.4 w/w %
Solubility at 0° C. (solvent: Acetonitrile): 0.5 w/w %
Solubility at max temp (solvent: Ethylacetate, 70 ° C.): 4.8 w/w %
Solubility at 0° C. (solvent: Ethylacetate): 0.9 w/w %
Solubility at max temp (solvent: MIBK, 80 ° C.): 5.2 w/w %
Solubility at 0° C. (solvent: MIBK): 0.4 w/w %
Solubility at max temp (solvent: Methylacetate, 50 ° C.): 4.9 w/w %
Solubility at 0° C. (solvent: Methylacetate): 1.3 w/w %
Solubility at max temp (solvent: i-propyl acetate, 80 ° C.): 4.2 w/w %
Solubility at 0° C. (solvent: i-propyl acetate): 0.4 w/w %
Solubility at max temp (solvent: n-propyl acetate, 80 ° C.): 4.3 w/w %
Solubility at 0° C. (solvent: n-propyl acetate): 0.8 w/w %
